Tests used:
[1] = system: HeLa S3 human epithelioid cervical carcinoma cells; assay: Cellular uptake of fluorescein-labeled dendrimers, quantified by flow cytometry (FACS); type: cell-based; details: for Percentage of Cellular Uptake: 4 hours after treatment, 37° C., average of two experiments; for saturation of uptake into cells: with increasing transporter concentration; for delivery to HeLa S3 cells: qualitative
Method: HeLa S3, human epithelioid cervical carcinoma cells of approximately 50% confluency were treated with concentrations varying from 250 nM to 50 μM of each of the molecular transporters 10, 11, 12, 13, and 41 at 37° C. The molecular transporters were directly added to the media (Dulbecco's modified eagle medium containing 10% fetal bovine serum and 1× antibiotic-antimycotic), and the delivery to the cells was visualized by microscopy.
Quantification of the uptake of the molecular transporter into the cells was performed by flow cytometry 4 hours after treatment. Adherent cells, grown on 6 well plates, were displaced with trypsin, after which the cells were washed with phosphate-buffered saline (PBS). The final cell pellet was collected by centrifugation and resuspended in PBS to a concentration of approximately 1×10^6 cells/mL. A minimum of 20,000 cell events were counted and analyzed using the FACSCalibur and CellQuest brand software (BD Biosciences, San Jose, Calif.).

HeLa S3 cells = assay: Sulphorhodamine B (SRB) cytotoxicity assay; type: cell-based, human; details: 4 hour treatment, concentrations up to 50 μM
Method: The cells were treated with varying concentrations (250 nM to 50 μM) of compound 12 for 4 hours at 37° C. The cells were fixed with trichloroacetic acid and were then subsequently stained with SRB dye. The cells were washed with water, and the SRB-bound complexes were solubilized in Tris buffer. The absorbance at 572 nm was measured in each sample.

[2] = Solubility in water observed on isolation; type: physicochemical; details: isolated salt

Row | SMILES | Percentage of Cellular Uptake ([1]; 250 nM) [%] | Percentage of Cellular Uptake ([1]; 500 nM) [%] | Percentage of Cellular Uptake ([1]; 1 μM) [%] | Percentage of Cellular Uptake ([1]; 5 μM) [%] | Percentage of Cellular Uptake ([1]; 10 μM) [%] | Percentage of Cellular Uptake ([1]; 25 μM) [%] | Percentage of Cellular Uptake ([1]; 50 μM) [%] | saturation of uptake into cells [1] | delivery to HeLa S3 cells [1] | cell lysis (HeLa S3 cells) | cytotoxic effect (HeLa S3 cells) | solubility in H2O [2]
1 | Cl.Cl.Cl.N=C(N)NCCNC(=O)CCOCC(COCCC(=O)NCCNC(=N)N)(COCCC(=O)NCCNC(=N)N)NC(=O)CCNC(=S)Nc1ccc(-c2c3ccc(=O)cc-3oc3cc(O)ccc23)c(C(=O)O)c1 (stereo not shown) [Compound 10] | 1.845 | 2.89 | 2.85 | 12.44 | 27.91 | 59.15 | 92.07 | approximately 100% | – | – | – | –
2 | Cl.Cl.Cl.Cl.Cl.Cl.N=C(N)NCCNC(=O)CCOCC(COCCC(=O)NCCNC(=N)N)(COCCC(=O)NCCNC(=N)N)NC(=O)CCNC(=O)c1cc(C(=O)NCCNC(=O)CCNC(=S)Nc2ccc(-c3c4ccc(=O)cc-4oc4cc(O)ccc34)c(C(=O)O)c2)cc(C(=O)NCCC(=O)NC(COCCC(=O)NCCNC(=N)N)(COCCC(=O)NCCNC(=N)N)COCCC(=O)NCCNC(=N)N)c1 (stereo not shown) [Compound 11] | – | – | – | – | – | – | – | approximately 100% | excellent delivery | – | – | –
3 | Cl.Cl.Cl.Cl.Cl.Cl.Cl.Cl.Cl.N=C(N)NCCNC(=O)CCOCC(COCCC(=O)NCCNC(=N)N)(COCCC(=O)NCCNC(=N)N)NC(=O)CCNC(=O)CCOCC(COCCC(=O)NCCC(=O)NC(COCCC(=O)NCCNC(=N)N)(COCCC(=O)NCCNC(=N)N)COCCC(=O)NCCNC(=N)N)(COCCC(=O)NCCC(=O)NC(COCCC(=O)NCCNC(=N)N)(COCCC(=O)NCCNC(=N)N)COCCC(=O)NCCNC(=N)N)NC(=O)CCNC(=S)Nc1ccc(-c2c3ccc(=O)cc-3oc3cc(O)ccc23)c(C(=O)O)c1 (stereo not shown) [Compound 12] | – | – | – | – | – | – | – | approximately 100% | excellent delivery | did not cause cell lysis | no cytotoxic effect | –
4 | Cl.Cl.Cl.Cl.Cl.Cl.Cl.Cl.Cl.Cl.Cl.Cl.N=C(N)NCCNC(=O)CCOCC(COCCC(=O)NCCNC(=N)N)(COCCC(=O)NCCNC(=N)N)NC(=O)CCNC(=O)CCOCC(COCCC(=O)NCCC(=O)NC(COCCC(=O)NCCNC(=N)N)(COCCC(=O)NCCNC(=N)N)COCCC(=O)NCCNC(=N)N)NC(=O)CCNC(=O)CCOCC(COCCC(=O)NCCC(=O)NC(COCCC(=O)NCCC(=O)NC(COCCC(=O)NCCNC(=N)N)(COCCC(=O)NCCNC(=N)N)COCCC(=O)NCCNC(=N)N)COCCC(=O)NCCC(=O)NC(COCCC(=O)NCCNC(=N)N)(COCCC(=O)NCCNC(=N)N)COCCC(=O)NCCNC(=N)N)NC(=O)CCNC(=S)Nc1ccc(-c2c3ccc(=O)cc-3oc3cc(O)ccc23)c(C(=O)O)c1 (stereo not shown) [Compound 13] | – | – | – | – | – | – | – | approximately 100% | excellent delivery | – | – | –
5 | N=C(N)NCCNC(=O)CCCCCNC(=O)CCNC(=S)Nc1ccc(-c2c3ccc(=O)cc-3oc3cc(O)ccc23)c(C(=O)O)c1 [Compound 41, 5-(3-{2-[5-(2-Guanidinoethylcarbamoyl)-pentylcarbamoyl]-ethyl}-thioureido)-2-(6-hydroxy-3-oxo-3H-xanthen-9-yl)-benzoic acid] | 1.95 | 2.065 | 3.025 | 16.07 | 32.4 | 67.47 | 86.71 | approximately 100% | – | – | – | barely soluble in H2O
